A short description of this data set: Pharmacokinetic study (HPLC-MS of blood samples). It is filed as in vivo. The settings on record: male C57BL/6 mice. As for the experimental part: Pharmacokinetic study of cobalt complex 2 was performed in male C57BL/6 mice by the dosage of 40 mg/kg. The source of mouse and practice of husbandry were the same as described in the methodology section of LLC-1 Xenograft Tumor experiment. Cobalt complex 2 was diluted in the formula (PEG400: H2O: Ethanol = 6:3:1) and administered by intraperitoneal in a volume of 0.005 mL/g bodyweight. After dosing, blood samples were collected to sodium heparin anticoagulant tube at different time points (5, 15, 30 min, and then 1, 2, 4, 8, 12 and 24 hours); 4 mice were used for each time point. Approximately 200 μL of blood was collected via orbital vein from each anesthetized mouse by isoflurane. Plasma was separated by centrifugation at 3000 g for 10 minutes at 4°C. The plasma was protected and stored at −80°C until analyzed by liquid chromatography-mass spectrometry/mass spectrometry (LC-MS/MS) for quantification.
Plasma samples were thawed at room temperature and then vortexed to ensure sample solution homogeneity. Firstly, a 20 μL aliquot of each plasma sample were loaded into 1.5 mL tube, 100 μL acetonitrile was added, vortexed then centrifuged at 13000 rpm for 10 min. the supernatant was collected. The plasma cobalt complex 2 concentrations were quantified using Thermo HPLC Ultimate 3000 system. The compound in plasma samples were analyzed by using the Agilent Zorbax Eclipse Plus C-18 column with a particle size of 1.8 μm. The parameters of the gradient elution program were applied as follows: mobile phase A (0.1% formic acid in water) and mobile phase B acetonitrile: 0–5.5 min, 20% B; 5.5–7 min, 90% B; 7–10 min, 20% B. The column and autosampler temperature were maintained at 40 and 4 °C, respectively. The gas temperature was set 320 °C with flow rate (0.8 mL/min), gases were set at 10 psi for the nebulizer, capillary, 3500 V.

As for `Cc1ccnc(-c2cc(C)ccn2)c1` [Me2-bpy], the “species detected in blood samples by HPLC-MS” value (40 mg/kg intraperitoneal of complex 2, 5 min to 24 hours) is given as “only the free ligand of Me2-bpy was detected”. The “free ligand signal (m/z 185.1071) in samples after 2-hour time interval” value (40 mg/kg intraperitoneal of complex 2, after 2 hours) is “very weak or no detectable signal”.

(Values after publication PMC5589637, “New perspectives of cobalt tris(bipyridine) system: anti-cancer effect and its collateral sensitivity towards multidrug-resistant (MDR) cancers” (Oncotarget, 2017).)
